Laboratory results as given in patent US20260355196A1, “INHIBITORS AND DEGRADERS OF PIP4K PROTEIN” (Larkspur Biosciences, Inc., priority 2023, published 2026).

Biological target: T1, PIP4K2C (Homo sapiens, UniProt Q8TBX8)
T1 sequence (Q8TBX8 1-421): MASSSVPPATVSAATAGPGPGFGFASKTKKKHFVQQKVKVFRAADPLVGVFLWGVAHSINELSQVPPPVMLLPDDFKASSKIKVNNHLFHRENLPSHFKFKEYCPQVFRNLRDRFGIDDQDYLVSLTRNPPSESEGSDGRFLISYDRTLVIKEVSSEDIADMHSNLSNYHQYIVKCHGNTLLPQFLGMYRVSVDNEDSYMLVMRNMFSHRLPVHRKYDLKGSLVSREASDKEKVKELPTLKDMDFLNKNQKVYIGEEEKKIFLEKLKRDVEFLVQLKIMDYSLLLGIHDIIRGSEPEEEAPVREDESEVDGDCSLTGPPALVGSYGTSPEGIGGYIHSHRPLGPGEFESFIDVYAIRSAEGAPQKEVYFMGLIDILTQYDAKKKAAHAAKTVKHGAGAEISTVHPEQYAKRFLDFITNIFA
Assay: Enzyme Binding Assay (KINOMEscan): active site-directed competition binding to an immobilized ligand
Design: purchased Eurofins DiscoverX, San Diego, CA 87-0007-1094
Details: 11-point dose response, duplicate, top concentration 5 micromolar; read-out: Pip4k2c Kd: IC50
Outline: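 Active site-directed competition binding against an immobilized ligand. 11-point dose-response in duplicate, top concentration 5 micromolar; IC50 from a Hill equation fitted by the Levenberg-Marquardt algorithm.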

SMILES	IC50 [nM]
NC(=O)[C@@H]1CCC[C@H](Nc2ncc(F)c(-c3cccc(-c4ccc[nH]c4=O)c3)n2)C1 [Compound 204, (1R,3S)-3-((5-fluoro-4-(3-(2-oxo-1,2-dihydropyridin-3-yl)phenyl)pyrimidin-2-yl)amino)cyclohexane-1-carboxamide]	< 500
CC(=O)N1CCC(Nc2ncc(F)c(N3CCOCC3)n2)CC1 [Compound 205, 1-(4-((5-fluoro-4-morpholinopyrimidin-2-yl)amino)piperidin-1-yl)ethan-1-one]	500 to 1000
CC(=O)N1CCC(Nc2ncc(F)c(-c3cccc(N4CCOCC4=O)c3)n2)CC1 [Compound 206, 4-(3-(2-((1-acetylpiperidin-4-yl)amino)-5-fluoropyrimidin-4-yl)phenyl)morpholin-3-one]	< 500
Cc1ccc(=O)n(-c2cccc(-c3nc(N[C@H]4CCC[C@@H](C(N)=O)C4)ncc3F)c2)c1 [Compound 207, (1R,3S)-3-((5-fluoro-4-(3-(5-methyl-2-oxopyridin-1 (2H)-yl)phenyl)pyrimidin-2-yl)amino)cyclohexane-1-carboxamide]	< 500
NC(=O)[C@@H]1CCC[C@H](Nc2ncc(F)c(-c3cccc(-n4cc(C(F)(F)F)ccc4=O)c3)n2)C1 [Compound 208, (1R,3S)-3-((5-fluoro-4-(3-(2-oxo-5-(trifluoromethyl)pyridin-1 (2H)-yl)phenyl)pyrimidin-2-yl)amino)cyclohexane-1-carboxamide]	< 500
CC(=O)N1CCC(Nc2ncc(F)c(-c3cccc(N4CCC[C@@H](O)C4)c3)n2)CC1 [Compound 209, (R)-1-(4-((5-fluoro-4-(3-(3-hydroxypiperidin-1-yl)phenyl)pyrimidin-2-yl)amino)piperidin-1-yl)ethan-1-one]	< 500
CC(=O)N1CCC(Nc2ncc(F)c(-c3cccc(N4CCC[C@H](O)C4)c3)n2)CC1 [Compound 210, (S)-1-(4-((5-fluoro-4-(3-(3-hydroxypiperidin-1-yl)phenyl)pyrimidin-2-yl)amino)piperidin-1-yl)ethan-1-one]	< 500
CC(=O)N1CCC(Nc2ncc(F)c(-c3cccc(N4CCC(O)CC4)c3)n2)CC1 [Compound 211, 1-(4-((5-fluoro-4-(3-(4-hydroxypiperidin-1-yl)phenyl)pyrimidin-2-yl)amino)piperidin-1-yl)ethan-1-one]	< 500
CC(=O)N1CCC(Nc2ncc(F)c(-c3cccc(C(=O)N4CC[C@H](O)C4)c3)n2)CC1 [Compound 212, (S)-1-(4-((5-fluoro-4-(3-(3-hydroxypyrrolidine-1-carbonyl)phenyl)pyrimidin-2-yl)amino)piperidin-1-yl)ethan-1-one]	< 500
CC(=O)N1CCC(Nc2ncc(F)c(-c3cccc(C(=O)N4CC[C@@H](O)C4)c3)n2)CC1 [Compound 213, (R)-1-(4-((5-fluoro-4-(3-(3-hydroxypyrrolidine-1-carbonyl)phenyl)pyrimidin-2-yl)amino)piperidin-1-yl)ethan-1-one]	< 500
CC(=O)N1CCC(Nc2ncc(F)c(-c3cccc(C(=O)N4CC(O)C4)c3)n2)CC1 [Compound 214, 1-(4-((5-fluoro-4-(3-(3-hydroxyazetidine-1-carbonyl)phenyl)pyrimidin-2-yl)amino)piperidin-1-yl)ethan-1-one]	< 500
CC(=O)N1CCC(Nc2ncc(F)c(N3CCC[C@H](C(=O)N4CC[C@H](O)C4)C3)n2)CC1 [Compound 215, 1-(4-((5-fluoro-4-((S)-3-((S)-3-hydroxypyrrolidine-1-carbonyl)piperidin-1-yl)pyrimidin-2-yl)amino)piperidin-1-yl)ethan-1-one]	1000 to 5000
CC(=O)N1CCC(Nc2ncc(F)c(N3CCC[C@H](C(=O)N4CC[C@@H](O)C4)C3)n2)CC1 [Compound 216, 1-(4-((5-fluoro-4-((S)-3-((R)-3-hydroxypyrrolidine-1-carbonyl)piperidin-1-yl)pyrimidin-2-yl)amino)piperidin-1-yl)ethan-1-one]	500 to 1000
CC(=O)N1CCC(Nc2ncc(F)c(-c3cccc(C(=O)N4CCC(O)(CO)CC4)c3)n2)CC1 [Compound 217, 1-[4-[[5-fluoro-4-[3-[4-hydroxy-4-(hydroxymethyl)piperidine-1-carbonyl]phenyl]pyrimidin-2-yl]amino]-1-piperidyl]ethanone]	< 500
CC(=O)N1CCC(Nc2ncc(F)c(-c3cccc(C(=O)N4CCC(O)(CN)CC4)c3)n2)CC1 [Compound 218, 1-(4-((4-(3-(4-(aminomethyl)-4-hydroxypiperidine-1-carbonyl)phenyl)-5-fluoropyrimidin-2-yl)amino)piperidin-1-yl)ethan-1-one]	< 500
CC(=O)N1CCC(Nc2ncc(F)c(-n3cc(C4CC4)cn3)n2)CC1 [Compound 219, 1-(4-((4-(4-cyclopropyl-1H-pyrazol-1-yl)-5-fluoropyrimidin-2-yl)amino)piperidin-1-yl)ethan-1-one]	< 500
CC(=O)N1CCC(Nc2ncc(F)c(-c3cccc(N4CCCOC4=O)c3)n2)CC1 [Compound 220, 3-[3-[2-[(1-acetyl-4-piperidyl)amino]-5-fluoro-pyrimidin-4-yl]phenyl]-1,3-oxazinan-2-one]	< 500
CC(=O)N1CCC(Nc2ncc(F)c(-c3cccc(N4CCCCC4=O)c3)n2)CC1 [Compound 221, 1-(3-(2-((1-acetylpiperidin-4-yl)amino)-5-fluoropyrimidin-4-yl)phenyl)piperidin-2-one]	< 500
CC(=O)N1CCC(Nc2ncc(F)c(-c3cccc(N4CCCC4=O)c3)n2)CC1 [Compound 222, 1-[3-[2-[(1-acetyl-4-piperidyl)amino]-5-fluoro-pyrimidin-4-yl]phenyl]pyrrolidin-2-one]	< 500
NC(=O)[C@@H]1CC[C@H](Nc2ncc(F)c(-c3cccc(-c4ccc[nH]c4=O)c3)n2)C1 [Compound 223, (1R,3S)-3-((5-fluoro-4-(3-(2-oxo-1,2-dihydropyridin-3-yl)phenyl)pyrimidin-2-yl)amino)cyclopentane-1-carboxamide]	< 500
CC(=O)N1CCC(Nc2ncc(F)c(N3CCCC(c4cc[nH]c(=O)c4)C3)n2)CC1 (centres unmarked) [Compound 224, 4-(1-(2-((1-acetylpiperidin-4-yl)amino)-5-fluoropyrimidin-4-yl)piperidin-3-yl)pyridin-2(1H)-one]	500 to 1000
CC(=O)N[C@H]1CC[C@H](Nc2ncc(F)c(-c3cccc(N4CCCOC4=O)c3)n2)CC1 [Compound 225, trans-N-(4-((5-fluoro-4-(3-(2-oxo-1,3-oxazinan-3-yl)phenyl)pyrimidin-2-yl)amino)cyclohexyl)acetamide]	< 500

The remaining lines, values ahead:

IC50 [nM]	SMILES
< 500	CC(=O)N1CCC(Nc2ncc(F)c(-c3cccc(N4CCOC4=O)c3)n2)CC1 [Compound 226, 3-(3-(2-((1-acetylpiperidin-4-yl)amino)-5-fluoropyrimidin-4-yl)phenyl)oxazolidin-2-one]
< 500	CC(=O)N1CCC(Nc2ncc(F)c(-c3cccc(N4CCC(O)C4=O)c3)n2)CC1 (centres unmarked) [Compound 228, 1-(3-(2-((1-acetylpiperidin-4-yl)amino)-5-fluoropyrimidin-4-yl)phenyl)-3-hydroxypyrrolidin-2-one]
< 500	NC(=O)[C@H]1CC[C@H](Nc2ncc(F)c(-c3cccc(-c4ccc(=O)[nH]c4)c3)n2)CC1 [Compound 229, trans-4-((5-fluoro-4-(3-(6-oxo-1,6-dihydropyridin-3-yl)phenyl)pyrimidin-2-yl)amino)cyclohexane-1-carboxamide]
< 500	CC(=O)N1CCC(Nc2ncc(F)c(-c3cccc(N4C[C@@H](O)CC4=O)c3)n2)CC1 [Compound 230, (4S)-1-[3-[2-[(1-acetyl-4-piperidyl)amino]-5-fluoro-pyrimidin-4-yl]phenyl]-4-hydroxy-pyrrolidin-2-one]
< 500	CC(=O)N[C@H]1CC[C@H](Nc2ncc(F)c(-c3ccnc(C4(O)CCC4)c3)n2)CC1 [Compound 231, trans-N-(4-((5-fluoro-4-(2-(1-hydroxycyclobutyl)pyridin-4-yl)pyrimidin-2-yl)amino)cyclohexyl)acetamide]
< 500	CC(=O)N1CCC(Nc2ncc(F)c(-c3ccnc(C4(O)CCC4)c3)n2)CC1 [Compound 232, 1-(4-((5-fluoro-4-(2-(1-hydroxycyclobutyl)pyridin-4-yl)pyrimidin-2-yl)amino)piperidin-1-yl)ethan-1-one]
< 500	CC(=O)N[C@H]1CC[C@H](Nc2ncc(F)c(-c3cccc(N4CCOC4=O)c3)n2)CC1 [Compound 233, trans-N-(4-((5-fluoro-4-(3-(2-oxooxazolidin-3-yl)phenyl)pyrimidin-2-yl)amino)cyclohexyl)acetamide]
< 500	CC(=O)N[C@H]1CC[C@H](Nc2ncc(F)c(-c3cccc(-n4cc(C(F)(F)F)ccc4=O)c3)n2)CC1 [Compound 234, trans-N-(4-((5-fluoro-4-(3-(2-oxo-5-(trifluoromethyl)pyridin-1 (2H)-yl)phenyl)pyrimidin-2-yl)amino)cyclohexyl)acetamide]
< 500	CC(=O)N[C@H]1CC[C@H](Nc2ncc(F)c(-c3cccc(-n4cc(C)ccc4=O)c3)n2)CC1 [Compound 235, trans-N-(4-((5-fluoro-4-(3-(5-methyl-2-oxopyridin-1 (2H)-yl)phenyl)pyrimidin-2-yl)amino)cyclohexyl)acetamide]
< 500	NC(=O)[C@H]1CC[C@H](Nc2ncc(F)c(-c3cccc(N4CCCOC4=O)c3)n2)CC1 [Compound 236, trans-4-((5-fluoro-4-(3-(2-oxo-1,3-oxazinan-3-yl)phenyl)pyrimidin-2-yl)amino)cyclohexane-1-carboxamide]
